# System: gp46 mRNA
# Test: pHSC in vitro assay, gp46 gene knockdown by qRT-PCR
# Assay type: cell-based, rat
# Details: @ 50 nM
row,SMILES,in vitro (pHSC) % KD
1,"CCCCCCCCCCCC(=O)OCCN(CCOC(=O)CCCCCCCCCCC)C(=O)C[N+](C)(C)CCO.[Br-] [HEDC-12, 2-(bis(2-(dodecanoyloxy)ethyl)amino)-N-(2-hydroxyethyl)-N,N-dimethyl-2-oxoethanaminium bromide]",i. 0% @ 50 nM
2,"CCCCC/C=C\C/C=C\CCCCCCCC(=O)OCCN(CCOC(=O)CCCCCCC/C=C\C/C=C\CCCCC)C(=O)C[N+](C)(C)CCO.[Br-] [HEDC-DLin, 2-(bis(2-((9Z,12Z)-octadeca-9,12-dienoyloxy)ethyl)amino)-N-(2-hydroxyethyl)-N,N-dimethyl-2-oxoethanaminium bromide]",i. 50% @ 50 nM

# Reference: patent US9242001B2, “Cationic lipids for therapeutic agent delivery formulations” (Nitto Denko Corporation, priority 2011, dated 2016)
